Converted amounts (≈) assume the structure as drawn.
Assays:
Klebsiella pneumoniae = assay: microbe, parasite or virus in culture; conditions: ATCC 700603, 18 h, ASSAY_TEST Inhibition of Bacterial Growth, detection method Absorption (OD600), MEDIA CAMHB, plate type 384well, NBS, CORNING #3640
Description: Antibacterial activity against Klebsiella pneumoniae MDR ATCC 70063 (CO-ADD:GN_003); MIC in CAMBH media using NBS plates, by OD(600)

Escherichia coli = assay: microbe, parasite or virus in culture; conditions: ATCC 25922, 18 h, ASSAY_TEST Inhibition of Bacterial Growth, detection method Absorption (OD600), MEDIA CAMHB, plate type 384well, NBS, CORNING #3640
Description: Antibacterial activity against Escherichia coli ATCC 25922 (CO-ADD:GN_001); MIC in CAMBH media using NBS plates, by OD(600)

HEK293 = assay: cells; assay type: functional; conditions: Homo sapiens, ATCC CRL1573, HEK293; ASSAY_TEST Inhibition of Cell Viability; detection method Resazurin; Fluorescence (ex560/em590); MEDIA DMEM with 10% FBS; plate type 384well; TC; CORNING #3712; time 18 hr
Candida albicans = assay: microbe, parasite or virus in culture; conditions: ATCC 90028, ASSAY_TEST Inhibition of Fungal Growth, detection method Absorption (OD530), plate type 384well, NBS, CORNING #3640
Description: Antifungal activity against Candida albicans ATCC 90028 (CO-ADD:FG_001); MIC in YNB media using NBS plates, by OD630

Acinetobacter baumannii = assay: microbe, parasite or virus in culture; conditions: ATCC 19606, 18 h, ASSAY_TEST Inhibition of Bacterial Growth, detection method Absorption (OD600), MEDIA CAMHB, plate type 384well, NBS, CORNING #3640
Description: Antibacterial activity against Acinetobacter baumannii ATCC 19606 (CO-ADD:GN_034); MIC in CAMBH media using NBS plates, by OD600

Pseudomonas aeruginosa = assay: microbe, parasite or virus in culture; conditions: ATCC 27853, 18 h, ASSAY_TEST Inhibition of Bacterial Growth, detection method Absorption (OD600), MEDIA CAMHB, plate type 384well, NBS, CORNING #3640
Description: Antibacterial activity against Pseudomonas aeruginosa ATCC 27853 (CO-ADD:GN_042); MIC in CAMBH media using NBS plates, by OD(600)

Staphylococcus aureus = assay: microbe, parasite or virus in culture; conditions: ATCC 43300, 18 h, ASSAY_TEST Inhibition of Bacterial Growth, detection method Absorption (OD600), MEDIA CAMHB, plate type 384well, NBS, CORNING #3640
Description: Antibacterial activity against Staphylococcus aureus MRSA ATCC 43300 (CO-ADD:GP_020); MIC in CAMBH media, using NBS plates, by OD(600)

Description for Cryptococcus neoformans: Antifungal activity against Cryptococcus neoformans H99 ATCC 208821 (CO-ADD:FG_002); MIC in YNB media using NBS plates, by Resazurin OD(600-570)

Row | Compound | MIC (Klebsiella pneumoniae) [µg/mL] | MIC (Cryptococcus neoformans) [µg/mL] | MIC (Escherichia coli) [µg/mL] | MIC (Candida albicans) [µg/mL] | MIC (Acinetobacter baumannii) [µg/mL] | MIC (Pseudomonas aeruginosa) [µg/mL] | MIC (Staphylococcus aureus) [µg/mL] | CC50 (HEK293) [µg/mL]
1 | C#CCNCc1cc2cc(OCc3ccccc3)ccc2[nH]1.Cl | > 32 | > 32 | > 32 | > 32 | > 32 | > 32 | > 32 | 4.04
2 | CCOC(=O)c1cc2cc(OCCCC3CCN(Cc4ccccc4)CC3)ccc2[nH]1.Cl | > 32 | > 32 | > 32 | > 32 | > 32 | > 32 | > 32 | 16.5
3 | OCc1ccc(O)c2ncccc12 | > 32 | 16 (≈ 91.3 µM) | > 32 | 16 (≈ 91.3 µM) | > 32 | 32 (≈ 183 µM) | > 32 | 17.3 (≈ 98.8 µM)
4 | N#Cc1c(N)nc(Sc2ccccc2)c(C#N)c1-c1ccccc1 | > 32 | > 32 | > 32 | > 32 | > 32 | > 32 | > 32 | > 32
5 | Cn1ccnc1C1c2c(nc3c(c2N)CCCCC3)Oc2ccc3ccccc3c21 (configuration not stated) | > 32 | > 32 | > 32 | > 32 | > 32 | > 32 | > 32 | > 32
6 | C#CCN(C)c1nc(NCCCCC2CCN(Cc3ccccc3)CC2)c(C#N)c(-c2ccccc2)c1C#N | > 32 | 8 (≈ 15.5 µM) | > 32 | 32 (≈ 61.9 µM) | > 32 | > 32 | > 32 | 3.73 (≈ 7.22 µM)
7 | C#CCNc1nc(Cl)c(C#N)cc1C#N | > 32 | > 32 | > 32 | 32 (≈ 148 µM) | > 32 | > 32 | > 32 | 22.4 (≈ 103 µM)
8 | C#CCNc1nc(NCCCCC2CCN(Cc3ccccc3)CC2)c(C#N)c(-c2ccccc2)c1C#N | > 32 | > 32 | > 32 | > 32 | > 32 | > 32 | > 32 | 3.46 (≈ 6.88 µM)
9 | Cl.ClCc1ccncc1 | > 32 | > 32 | > 32 | 32 | > 32 | > 32 | > 32 | > 32
10 | N#Cc1c(NCCC2CCN(Cc3ccccc3)CC2)nc(NCCC2CCN(Cc3ccccc3)CC2)c(C#N)c1-c1ccccc1 | > 32 | > 32 | > 32 | > 32 | > 32 | > 32 | > 32 | > 32
11 | C#CCNc1nc(NCCC2CCN(Cc3ccccc3)CC2)c(C#N)c(-c2ccccc2)c1C#N | > 32 | > 32 | > 32 | > 32 | > 32 | > 32 | > 32 | 11.3 (≈ 23.8 µM)
12 | N#CC1=C(N)Oc2c(ccc3ccccc23)C1c1ccc([N+](=O)[O-])cc1 (configuration not stated) | > 32 | > 32 | > 32 | > 32 | > 32 | > 32 | > 32 | 0.259 (≈ 0.754 µM)

Now from value to compound, other results behind:

Row | MIC (Klebsiella pneumoniae) [µg/mL] | MIC (Cryptococcus neoformans) [µg/mL] | MIC (Escherichia coli) [µg/mL] | MIC (Candida albicans) [µg/mL] | MIC (Acinetobacter baumannii) [µg/mL] | MIC (Pseudomonas aeruginosa) [µg/mL] | MIC (Staphylococcus aureus) [µg/mL] | Compound | CC50 (HEK293) [µg/mL]
13 | > 32 | > 32 | > 32 | > 32 | > 32 | > 32 | > 32 | C#CCN(C)Cc1cc2cc(OCCCC3CCNCC3)ccc2n1C.C#CCN(C)Cc1cc2cc(OCCCC3CCNCC3)ccc2n1C.Cl.Cl.Cl.Cl.O | 17.2
14 | > 32 | > 32 | > 32 | > 32 | > 32 | 16 | > 32 | Cl.Nc1c2c(nc3[nH]c4ccccc4c13)CCCC2 | 4.74
15 | > 32 | 32 (≈ 115 µM) | > 32 | > 32 | > 32 | > 32 | > 32 | N#C/C(=C\c1ccc([N+](=O)[O-])cc1)C(=O)c1ccccc1 | > 32
16 | > 32 | 1 | > 32 | 16 | > 32 | 32 | 4 | Cl.Oc1ccc(CCl)c2cccnc12 | 2.26
17 | > 32 | > 32 | > 32 | > 32 | > 32 | > 32 | > 32 | Brc1nc(Br)c(Br)[nH]1 | > 32
18 | > 32 | 8 (≈ 36.7 µM) | > 32 | 16 (≈ 73.3 µM) | > 32 | > 32 | > 32 | CCOC(=O)C(=Cc1ccccc1)C(C)=O | 13.5 (≈ 61.9 µM)
19 | > 32 | > 32 | > 32 | > 32 | > 32 | > 32 | > 32 | Nc1n[nH]c2nc3[nH]nc(N)c3c(-c3ccccc3)c12 | 8.23 (≈ 31 µM)
